According to patent publication EP4095134A1, “POLYCYCLIC COMPOUNDS FOR THE TREATMENT OF NEUROLOGICAL INDICATIONS” (UCL Business Ltd, priority 2021, dated 2022):

Molecular target: T1, P2Y1 receptor (Homo sapiens, UniProt P47900)
T1 construct: expressed in transfected cells
Experiment: P2Y1 IP1 accumulation HTRF assay, antagonism of agonist MRS2365 in stably transfected cells
Format: cell-based
Conditions: 5nM MRS2365, values rounded to nearest whole number
Experimental: IC50 values were determined using a cell based assay in stably transfected cells overexpressing the P2Y1 receptor. The assay system is a […] (HTRF) assay measuring accumulation of the intracellular messenger inositol monophosphate (IP1), generated intracellularly following activation of P2Y1. Activity of test compounds was generated by measuring antagonism of the increase in IP1 generated by addition of a selective P2Y1 agonist, MRS2365.
P2Y1 overexpressing cells were maintained in T175 flasks. The day before the assay, these cells were split and 20µl cell suspension transferred to each well of white 384-well assay plates at a cell density of 0.5x10^6 cells/mL. Plates were pulse centrifuged, then incubated overnight at 37°C / 5% CO2 prior to assay.
On day of assay, medium was removed from cells and replaced with stimulation buffer. Compounds were prepared in 100% DMSO for addition to cells using the Tecan D300e digital dispenser; compounds were prepared in cassette heads and added directly to wells in the required concentration range, to give a 10-point concentration response curve from 10µM with semi-log dilutions and a final DMSO concentration of 0.1%. Positive control antagonist curves with standard compounds were included on each plate. Plates were incubated with antagonists for 1 hour prior to addition of 5nM of the agonist MRS2365, dispensed using a Bravo liquid handler. Following agonist addition, plates were incubated for 60 minutes prior to assay. Both incubations were carried out at 37°C / 5% CO2.
For the assay, IP1 accumulation was quantified using the IPOne kit according to manufacturer's instructions. In short, a standard curve was prepared for IP 1 quantification, and cells lysed using kit lysis buffer. Assay reagents were added to the lysates, and incubated for 1 hour at room temperature without spinning or shaking. Plates were analysed on a BMG Pherastar plate reader, and IP1 signal generated in cells interpolated from the standard curve.
For all reported results, N is greater than or equal to 4. An individual N refers to one assay run with a single weighing of compound. A minimum of two assay runs were performed for each of two independent weighings of compound. Results (racemic)

T1 sequence (P47900 whole entry): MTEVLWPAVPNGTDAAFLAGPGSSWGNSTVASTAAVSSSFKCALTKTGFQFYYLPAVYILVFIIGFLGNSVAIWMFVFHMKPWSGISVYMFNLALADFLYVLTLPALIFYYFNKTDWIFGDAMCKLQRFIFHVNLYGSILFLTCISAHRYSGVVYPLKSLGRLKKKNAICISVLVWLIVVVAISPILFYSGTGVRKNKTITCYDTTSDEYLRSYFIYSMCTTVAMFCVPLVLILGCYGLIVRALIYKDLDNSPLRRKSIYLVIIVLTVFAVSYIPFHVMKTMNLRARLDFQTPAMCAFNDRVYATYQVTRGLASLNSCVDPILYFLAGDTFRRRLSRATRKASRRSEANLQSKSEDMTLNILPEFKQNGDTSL

Compound	IC50 (racemic, N >= 4) [nM]	IC50 (single enantiomer) [nM]
Cc1ccc(NC(=O)Nc2ccc(F)cn2)c(Oc2ccc(F)cc2C2(C(F)(F)F)CCO2)n1 (racemic) [S54, 1-(2-(4-fluoro-2-(2-(trifluoromethyl)oxetan-2-yl)phenoxy)-6-methylpyridin-3-yl)-3-(5-fluoropyridin-2-yl)urea]	549	
COc1ccc2nc(Nc3cccnc3Oc3ccc(F)cc3C3(C(F)(F)F)CCO3)[nH]c2n1 (racemic) [S119]	721	
Cc1ccc(NC(=O)Nc2ccc(C(C)C)cc2)c(Oc2ccccc2C2(C(F)(F)F)CCO2)n1 (racemic) [S1]	20	
O=C(Nc1ccc(OC(F)(F)F)cc1)Nc1cccnc1Oc1ccccc1C1(C(F)(F)F)CCN1CC1CC1 (racemic) [S116]	45	
O=C(Nc1ccc(OC(F)(F)F)cc1)Nc1ccc(Cl)nc1Oc1ccccc1C1(C(F)(F)F)CCO1 (racemic) [S20, 1-(6-chloro-2-(2-(2-(trifluoromethyl)oxetan-2-yl)phenoxy)pyridin-3-yl)-3-(4-(trifluoromethoxy)phenyl)urea]	125	
Cc1ccc(NC(=O)NC2CC3(C2)CC(F)(F)C3)c(Oc2ccc(F)cc2C2(C(F)(F)F)CCO2)n1 (racemic) [S86, 1-(6,6-difluorospiro[3.3]heptan-2-yl)-3-(2-(4-fluoro-2-(2-(trifluoromethyl)oxetan-2-yl)phenoxy)-6-methylpyridin-3-yl)urea]	6050	
Cc1ncc(NC(=O)Nc2ccc(OC(F)(F)F)cc2F)c(Oc2ccccc2C2(C(F)(F)F)CCO2)n1 (racemic) [S45]	382	
CN1CCC1(c1ccccc1Oc1ncccc1NC(=O)Nc1ccc(OC(F)(F)F)cc1)C(F)F (racemic) [S35]	197	
O=C(Nc1ccc(OC(F)(F)F)cc1)Nc1cccnc1Oc1ccccc1[C@@]1(C(F)(F)F)CCO1 [S110]		68
Cc1ccc(NC(=O)Nc2ccc(C(C)C)cc2F)c(Oc2ccccc2[C@@]2(C(F)(F)F)CCO2)n1 (single isomer, unassigned) [S122]		18
Cc1ccc(NC(=O)Nc2ccc(C#N)cc2F)c(Oc2ccc(F)cc2C2(C(F)(F)F)CCO2)n1 (racemic) [S56, 1-(4-cyano-2-fluorophenyl)-3-(2-(4-fluoro-2-(2-(trifluoromethyl)oxetan-2-yl)phenoxy)-6-methylpyridin-3-yl)urea]	587	
O=C(Nc1ccc(OC(F)(F)F)cc1)Nc1cccnc1Oc1ccc(F)cc1C1(C(F)(F)F)CCO1 (racemic) [S33]	179	
CC1(c2ccccc2Oc2ncccc2NC(=O)Nc2ccc(OC(F)(F)F)cc2)CCC1 (racemic) [S95]	36	
O=C(Nc1ccc(S(F)(F)(F)(F)F)cc1)Nc1cccnc1Oc1ccccc1C1(C(F)(F)F)CCO1 (racemic) [S28, 1-(4-(pentafluoro-λ^6-sulfaneyl)phenyl)-3-(2-(2-(2-(trifluoromethyl)oxetan-2-yl)phenoxy)pyridin-3-yl)urea]	157	
COc1ccc(F)c(NC(=O)Nc2cccnc2Oc2ccccc2C2(C(F)(F)F)CCO2)c1 (racemic) [S47, 1-(2-fluoro-5-methoxyphenyl)-3-(2-(2-(2-(trifluoromethyl)oxetan-2-yl)phenoxy)pyridin-3-yl)urea]	392	
CN1CC[C@@]1(c1ccccc1Oc1ncccc1NC(=O)Nc1ccc(OC(F)(F)F)cc1)C(F)(F)F [S115]		39
O=C(Nc1ccc(OC(F)(F)F)cc1F)Nc1cccnc1Oc1ccccc1[C@]1(C(F)(F)F)CCO1 [S107]		113

Compound	IC50 (racemic, N >= 4) [nM]	IC50 (single enantiomer) [nM]
O=C(Nc1cc2c(cc1F)OCO2)Nc1cccnc1Oc1ccccc1C1(C(F)(F)F)CCO1 (racemic) [S61, 1-(6-fluorobenzo[d][1,3]dioxol-5-yl)-3-(2-(2-(2-(trifluoromethyl)oxetan-2-yl)phenoxy)pyridin-3-yl)urea]	768	
CN1CCC1(c1ccccc1Oc1ncccc1NC(=O)Nc1ccc(OC(F)(F)F)cc1)C(F)(F)F (racemic) [S89]	71	
Cc1ccc(NC(=O)Nc2ccccc2)c(Oc2ccc(F)cc2C2(C(F)(F)F)CCO2)n1 (racemic) [S42, 1-(2-(4-fluoro-2-(2-(trifluoromethyl)oxetan-2-yl)phenoxy)-6-methylpyridin-3-yl)-3-phenylurea]	324	
O=C(Nc1ccc(Cl)cc1F)Nc1ccc(Cl)nc1Oc1ccccc1C1(C(F)(F)F)CCO1 (racemic) [S22, 1-(6-chloro-2-(2-(2-(trifluoromethyl)oxetan-2-yl)phenoxy)pyridin-3-yl)-3-(4-chloro-2-fluorophenyl)urea]	141	
O=C(Nc1ccc(CN2CC(F)(F)C2)cc1)Nc1cccnc1Oc1ccccc1C1(C(F)(F)F)CCO1 (racemic) [S62, 1-(4-((3,3-difluoroazetidin-1-yl)methyl)phenyl)-3-(2-(2-(2-(trifluoromethyl)oxetan-2-yl)phenoxy)pyridin-3-yl)urea]	807	
Cc1ncc(NC(=O)Nc2ccc(Cl)cc2F)c(Oc2ccccc2C2(C(F)(F)F)CCO2)n1 (racemic) [S58]	639	
COc1ccc(NC(=O)Nc2cccnc2Oc2ccccc2C2(C(F)(F)F)CCO2)c(F)c1 (racemic) [S51, 1-(2-fluoro-4-methoxyphenyl)-3-(2-(2-(2-(trifluoromethyl)oxetan-2-yl)phenoxy)pyridin-3-yl)urea]	473	
Cc1ncc(NC(=O)Nc2ccc(OC(F)(F)F)cc2)c(Oc2ccccc2C2(C(F)(F)F)CCO2)n1 (racemic) [S59, 1-(2-methyl-4-(2-(2-(trifluoromethyl)oxetan-2-yl)phenoxy)pyrimidin-5-yl)-3-(4-(trifluoromethoxy)phenyl)urea]	644	
O=C(Nc1ccc(Cl)cc1F)Nc1cccnc1Oc1ccc(F)cc1C1(C(F)(F)F)CCO1 (racemic) [S30, 1-(4-chloro-2-fluorophenyl)-3-(2-(4-fluoro-2-(2-(trifluoromethyl)oxetan-2-yl)phenoxy)pyridin-3-yl)urea]	166	
O=C(Nc1ccc(OC(F)(F)F)c(F)c1)Nc1cccnc1Oc1ccccc1C1(C(F)(F)F)CCO1 (racemic) [S23, 1-(3-fluoro-4-(trifluoromethoxy)phenyl)-3-(2-(2-(2-(trifluoromethyl)oxetan-2-yl)phenoxy)pyridin-3-yl)urea]	145	
O=C(Nc1ccc(OC(F)(F)F)cc1)Nc1cccnc1Oc1ccccc1C1(C(F)F)CCN1CCF (racemic) [S118]	121	
CN1CC[C@]1(c1ccccc1Oc1ncccc1NC(=O)Nc1ccc(OC(F)(F)F)cc1F)C(F)(F)F (single isomer, unassigned) [S102]		52
COc1cc(NC(=O)Nc2ccc(C)nc2Oc2ccc(F)cc2C2(C(F)(F)F)CCO2)ccn1 (racemic) [S77, 1-(2-(4-fluoro-2-(2-(trifluoromethyl)oxetan-2-yl)phenoxy)-6-methylpyridin-3-yl)-3-(2-methoxypyridin-4-yl)urea]	3140	
O=C(Nc1cccnc1Oc1ccccc1[C@@]1(C(F)(F)F)CCO1)Nc1ccc(Cl)c(F)c1F [S108]		125
N#Cc1ccc(NC(=O)Nc2cccnc2Oc2ccccc2C2(C(F)(F)F)CCO2)cc1 (racemic) [S79, 1-(4-cyanophenyl)-3-(2-(2-(2-(trifluoromethyl)oxetan-2-yl)phenoxy)pyridin-3-yl)urea]	3170	
Cc1ccc(NC(=O)Nc2ccc(OC(F)(F)F)cc2)c(Oc2ccc(F)cc2C2(C(F)(F)F)CCO2)n1 (racemic) [S19, 1-(2-(4-fluoro-2-(2-(trifluoromethyl)oxetan-2-yl)phenoxy)-6-methylpyridin-3-yl)-3-(4-(trifluoromethoxy)phenyl)urea]	120	
